# Molecular target: T1, GnRH receptor (Homo sapiens, UniProt P30968)
# T1 construct: expressed in transfected cells
# T1 sequence (P30968 1-328): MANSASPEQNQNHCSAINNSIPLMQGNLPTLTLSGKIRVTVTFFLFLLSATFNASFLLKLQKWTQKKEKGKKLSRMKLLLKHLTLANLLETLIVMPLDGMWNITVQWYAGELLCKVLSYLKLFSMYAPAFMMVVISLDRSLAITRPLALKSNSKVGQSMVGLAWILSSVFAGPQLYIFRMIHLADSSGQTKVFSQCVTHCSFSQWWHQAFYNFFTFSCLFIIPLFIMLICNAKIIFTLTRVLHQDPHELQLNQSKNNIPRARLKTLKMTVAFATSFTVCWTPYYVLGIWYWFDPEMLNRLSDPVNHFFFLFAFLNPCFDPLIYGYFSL
# Assay: GnRH receptor membrane binding assay
# Settings: not given
# Protocol: Radio-Iodination of GnRH Peptide
# The GnRH analog is labeled by the chloramine-T method. […] The reaction is stopped by the addition of 60 μg sodium metabisulfite and the free iodine is removed by passing the iodinated mixture through a C-8 Sep-Pak cartridge (Millipore Corp., Milford, Mass.). The peptide is eluted with a small volume of 80% acetonitrile/water. […] The purified radioactive peptide is stored in 0.1% BSA/20% acetonitrile/0.1% TFA at −80° C. and can be used for up to 4 weeks.
# GnRH Receptor Membrane Binding Assay
# Cells stably, or transiently, transfected with GnRH receptor expression vectors are harvested, resuspended in 5% sucrose and homogenized using a polytron homogenizer (2×15 sec). Nucleii are removed by centrifugation (3000×g for 5 min.), and the supernatant centrifuged (20,000×g for 30 min, 4° C.) to collect the membrane fraction. The final membrane preparation is resuspended in binding buffer (10 mM Hepes (pH 7.5), 150 mM NaCl, and 0.1% BSA) and stored at −70° C. Binding reactions are performed in a Millipore MultiScreen 96-well filtration plate assembly with polyethylenimine coated GF/C membranes. […] The reaction is terminated after 90 minutes by application of vacuum and washing (2×) with phosphate buffered saline. Bound radioactivity is measured using 96-well scintillation counting (Packard Topcount) or by removing the filters from the plate and direct gamma counting. Ki values are calculated from competition binding data using non-linear least squares regression using the Prism software package (GraphPad Software).
row,Ki [nM],SMILES
1,< 100,Cc1cccc(-c2c(C)n(Cc3c(F)cccc3F)c(=O)n(C[C@H](N)c3ccccc3)c2=O)c1F [8-17]
2,< 100,COc1cccc(-c2c(C)n(Cc3c(F)cccc3F)c(=O)n(CCN(C)CCc3ccccn3)c2=O)c1F [9-24]

# Same assay, conditions: GnRH receptor membrane binding assay, [125I]-labeled GnRH peptide; read-out: Ki
row,SMILES,Ki [nM]
1,COc1cccc(-c2c(C)n(Cc3c(F)cccc3F)c(=O)n(CCN(C)Cc3ccccn3)c2=O)c1 [1-3],< 100
2,CCN(CCc1ccccn1)CCn1c(=O)c(-c2cccc(OC)c2)c(C)n(Cc2c(F)cccc2F)c1=O [1-10],< 100
3,COc1cccc(-c2c(C)n(Cc3c(F)cccc3F)c(=O)n(CCN(C)CCc3cccc(Cl)n3)c2=O)c1 [1-11],< 100
4,COc1cccc(-c2c(C)n(Cc3c(F)cccc3F)c(=O)n(CCN(CCc3ccccn3)CC3CC3)c2=O)c1 [1-12],< 100
5,CCN1CCC(N(CC)CCn2c(=O)c(-c3cccc(OC)c3)c(C)n(Cc3c(F)cccc3F)c2=O)C1 (stereo not drawn) [1-13],< 100
6,Cc1c(-c2ccc3c(c2)OCO3)c(=O)n(CCN(C)CCc2ccccn2)c(=O)n1Cc1c(F)cccc1F [3-1],< 100
7,CCN(CCc1ccccn1)CCn1c(=O)c(-c2ccc3c(c2)OCO3)c(C)n(Cc2c(F)cccc2F)c1=O [3-4],< 100
8,Cc1c(-c2ccccc2F)c(=O)n(CCN(C)CCc2ccccn2)c(=O)n1Cc1c(F)cccc1F [6-1],< 100
9,Cc1c(-c2ccc(Oc3ccccc3)cc2)c(=O)n(CCN(C)CCc2ccccn2)c(=O)n1Cc1c(F)cccc1F [6-2],< 100
10,Cc1c(-c2ccc3c(c2)OCCO3)c(=O)n(CCN(C)CCc2ccccn2)c(=O)n1Cc1c(F)cccc1F [6-3],< 100
11,Cc1c(-c2ccc(NC(=O)OCC(C)C)cc2)c(=O)n(CCN(C)CCc2ccccn2)c(=O)n1Cc1c(F)cccc1F [6-8],< 100
12,COc1cccc(-c2c(C)n(Cc3c(F)cccc3F)c(=O)n(CCN3CCC(N4CCCC4)CC3)c2=O)c1 [7-2],< 100
13,COc1cccc(-c2c(C)n(Cc3c(F)cccc3F)c(=O)n(CCN3CCC(NC(=O)C(F)(F)F)C3)c2=O)c1 (stereo not drawn) [7-3],< 100
14,COc1cccc(-c2c(C)n(Cc3c(F)cccc3F)c(=O)n(CCN3CCC(NC(=O)OC(C)(C)C)C3)c2=O)c1 (stereo not drawn) [7-4],< 100
15,COc1cccc(-c2c(C)n(Cc3c(F)cccc3F)c(=O)n(CCN3CC4CC3CO4)c2=O)c1 (stereo not drawn) [7-10],< 100
16,Cc1cc(=O)n(C[C@@H](N)Cc2ccccc2)c(=O)n1Cc1c(F)cccc1F [8-4],< 100

row,SMILES,Ki [nM]
1,Cc1cc(=O)n(C[C@H](N)Cc2ccccc2)c(=O)n1Cc1c(F)cccc1F [8-7],< 100
2,Cc1cc(=O)n(C[C@@H](N)CC2CCCCC2)c(=O)n1Cc1c(F)cccc1F [8-12],< 100
3,COc1cccc(-c2c(C)n(Cc3c(F)cccc3F)c(=O)n(C[C@H](N)COCc3ccccc3)c2=O)c1F [8-15],< 100
4,COc1cccc(-c2c(C)n(Cc3c(F)cccc3F)c(=O)n(C[C@@H](N)CC(C)C)c2=O)c1F [8-23],< 100
5,COc1cccc(-c2c(C)n(Cc3c(F)cccc3F)c(=O)n(C[C@H](N)C(C)C)c2=O)c1F [8-25],< 100
6,Cc1cc(-c2c(C)n(Cc3c(F)cccc3F)c(=O)n(C[C@H](N)c3ccccc3)c2=O)ccc1F [8-44],< 100
7,COc1cccc(-c2c(C)n(Cc3c(F)cccc3F)c(=O)n(C[C@H](N)C(=O)Nc3ccccc3)c2=O)c1 [8-51],< 100
8,COc1ccc(-c2c(C)n(Cc3c(F)cccc3F)c(=O)n(C[C@H](N)c3ccccc3)c2=O)cn1 [8-58],< 100
9,CCOc1cccc(-c2c(C)n(Cc3c(F)cccc3F)c(=O)n(C[C@H](N)c3ccccc3)c2=O)c1 [8-59],< 100
10,CSc1cccc(-c2c(C)n(Cc3c(F)cccc3F)c(=O)n(C[C@H](N)c3ccccc3)c2=O)c1 [8-61],< 100
11,COc1cccc(Oc2ccc(-c3c(C)n(Cc4c(F)cccc4F)c(=O)n(C[C@H](N)c4ccccc4)c3=O)cc2)c1 [8-68],< 100
12,Cc1c(-c2ccc(Oc3cccc(Cl)c3)cc2)c(=O)n(C[C@H](N)c2ccccc2)c(=O)n1Cc1c(F)cccc1F [8-70],< 100
13,Cc1c(-c2ccc(Cl)s2)c(=O)n(C[C@H](N)c2ccccc2)c(=O)n1Cc1c(F)cccc1F [8-75],< 100
14,COc1ccc(-c2c(C)n(Cc3c(F)cccc3F)c(=O)n(C[C@H](N)c3ccccc3)c2=O)cc1 [8-100],< 100
15,Cc1ccc(-c2c(C)n(Cc3c(F)cccc3F)c(=O)n(C[C@H](N)c3ccccc3)c2=O)s1 [8-106],< 100
16,Cc1c(-c2cccs2)c(=O)n(C[C@H](N)c2ccccc2)c(=O)n1Cc1c(F)cccc1F [8-107],< 100

# Results, then the compound that gave them:
row,Ki [nM],SMILES
1,< 100,CCNC(=O)[C@@H]1CCCN1CCn1c(=O)c(-c2cccc(OC)c2)c(C)n(Cc2c(F)cccc2F)c1=O [9-3]
2,< 100,COc1cccc(-c2c(C)n(Cc3c(F)cccc3F)c(=O)n(CCN3CCC[C@@H]3CO)c2=O)c1 [9-4]
3,< 100,COc1cccc(-c2c(C)n(Cc3c(F)cccc3F)c(=O)n(CCN3CC[C@@H](NC(C)=O)C3)c2=O)c1 [9-7]
4,< 100,COc1cccc(-c2c(C)n(Cc3c(F)cccc3F)c(=O)n(CC(C)NCCCOCC(C)C)c2=O)c1 (stereo not drawn) [9-19]
5,< 100,COc1cccc(-c2c(C)n(Cc3c(F)cccc3F)c(=O)n(CC3CCCN3)c2=O)c1 (stereo not drawn) [9-26]
6,< 100,Cc1c(-c2ccc(Oc3ccccc3)cc2)c(=O)n(CCNCc2cc(C(F)(F)F)cc(C(F)(F)F)c2)c(=O)n1Cc1c(F)cccc1F [9-32]
7,< 100,Cc1c(-c2ccc(Oc3ccccc3)cc2)c(=O)n(CCN2CCN(Cc3ccc4c(c3)OCO4)CC2)c(=O)n1Cc1c(F)cccc1F [9-35]
8,< 100,Cc1c(-c2ccc(Oc3ccccc3)cc2)c(=O)n(CCN2CCCC(C(N)=O)C2)c(=O)n1Cc1c(F)cccc1F (stereo not drawn) [9-37]
9,< 100,Cc1c(-c2ccc(Oc3ccccc3)cc2)c(=O)n(CCN(Cc2ccccc2)Cc2ccccc2)c(=O)n1Cc1c(F)cccc1F [9-39]
10,< 100,Cc1c(-c2ccc(Oc3ccccc3)cc2)c(=O)n(CCN2CCN(c3cccc(Cl)c3)CC2)c(=O)n1Cc1c(F)cccc1F [9-40]
11,< 100,Cc1c(-c2ccc(Oc3ccccc3)cc2)c(=O)n(CCN2CC[C@@H](NC(=O)C(F)(F)F)C2)c(=O)n1Cc1c(F)cccc1F [9-42]
12,< 100,Cc1c(-c2ccccc2F)c(=O)n(CCN2CCN(c3cccc(Cl)c3)CC2)c(=O)n1Cc1c(F)cccc1F [9-56]
13,< 100,Cc1c(-c2ccccc2F)c(=O)n(CCN2CCN(C(=O)OCc3ccccc3)CC2)c(=O)n1Cc1c(F)cccc1F [9-58]
14,< 100,Cc1c(-c2ccc3c(c2)OCO3)c(=O)n(CCNCc2cc(C(F)(F)F)cc(C(F)(F)F)c2)c(=O)n1Cc1c(F)cccc1F [9-63]
15,< 100,Cc1c(-c2ccc3c(c2)OCO3)c(=O)n(CCNCCN(C(C)C)C(C)C)c(=O)n1Cc1c(F)cccc1F [9-64]
16,< 100,Cc1c(-c2ccc3c(c2)OCO3)c(=O)n(CCN2CCN(c3cccc(Cl)c3)CC2)c(=O)n1Cc1c(F)cccc1F [9-70]
17,< 100,Cc1c(-c2ccc(C(C)C)cc2)c(=O)n(CCN2CCN(c3cccc(Cl)c3)CC2)c(=O)n1Cc1c(F)cccc1F [9-85]
18,< 100,CCCN(CCn1c(=O)c(-c2ccc(C(C)C)cc2)c(C)n(Cc2c(F)cccc2F)c1=O)C(C)CC (stereo not drawn) [9-86]
19,< 100,Cc1c(-c2ccc3c(c2)OCCO3)c(=O)n(CCN2CCN(Cc3ccc4c(c3)OCO4)CC2)c(=O)n1Cc1c(F)cccc1F [9-95]
20,< 100,Cc1c(-c2ccc3c(c2)OCCO3)c(=O)n(CCN2CC(C)OC(C)C2)c(=O)n1Cc1c(F)cccc1F (stereo not drawn) [9-96]
21,< 100,COc1cccc(-c2c(C)n(Cc3c(F)cccc3F)c(=O)n(CC(C)NCc3ccccn3)c2=O)c1 (stereo not drawn) [9-109]
22,< 100,CCC(C)NC(=O)[C@@H]1CCCN1CCn1c(=O)c(-c2cccc(OC)c2)c(C)n(Cc2c(F)cccc2F)c1=O (stereo partly drawn) [9-112]
23,< 100,Cc1c(-c2ccc(Oc3ccccc3)cc2)c(=O)n(CCNCC(F)(F)F)c(=O)n1Cc1c(F)cccc1F [9-138]
24,< 100,Cc1c(-c2ccc(Oc3ccccc3)cc2)c(=O)n(CCNCCC(c2ccccc2)c2ccccc2)c(=O)n1Cc1c(F)cccc1F [9-140]
25,< 100,Cc1c(-c2ccc(Oc3ccccc3)cc2)c(=O)n(CCNCc2cccc([N+](=O)[O-])c2)c(=O)n1Cc1c(F)cccc1F [9-142]
26,< 100,Cc1c(-c2ccc(Oc3ccccc3)cc2)c(=O)n(CCNCc2ccc([N+](=O)[O-])cc2)c(=O)n1Cc1c(F)cccc1F [9-143]
27,< 100,Cc1c(-c2ccc(Oc3ccccc3)cc2)c(=O)n(CCNCc2ccc(F)cc2C(F)(F)F)c(=O)n1Cc1c(F)cccc1F [9-145]
28,< 100,Cc1c(-c2ccc(Oc3ccccc3)cc2)c(=O)n(CCN2CCN(c3ccccc3)CC2)c(=O)n1Cc1c(F)cccc1F [9-146]
29,< 100,Cc1c(-c2ccccc2F)c(=O)n(CCNC2CCC(C)CC2)c(=O)n1Cc1c(F)cccc1F (stereo not drawn) [9-149]
